{
  "source": "patent US11904004B2",
  "about": "“Anti-CD277 antibodies” (INSTITUT NATIONAL DE LA SANTE ET DE LA RECHERCHE MEDICALE …, priority 2010, dated 2024)",
  "assay_type_in_all_cases": "cell-based, human",
  "key": {"Vγ9Vδ2 T cells": {"system": "Vγ9Vδ2 T cells", "assay": "Activation / CD107 degranulation of expanded Vγ9Vδ2 T cells (phosphoantigen or anti-CD3 stimulation)", "details": "increasing doses of BrHPP alone", "method": "We used for γδ T cells labelling in purity test after expansion, anti-CD3 PE-Cy7 and anti-Vδ2 FITC mAb (BD Pharmingen). For CD277 characterisation in different subsets PBMC were incubated with the following antibodies and molecules: anti-CD3 PE-Cy5 (BD Pharmingen), anti-CD4 PB (BD Pharmingen), anti-CD8 PB (BD Pharmingen), anti-Vδ2 FITC (BD Pharmingen), anti-CD27 APC ALEXA FLUOR® 750 (CALTAG Laboratory), anti-CCR7 PECy7 (BD Pharmingen), anti-CD28 PE (Beckman Coulter), anti-CD45RA ECD (Beckman Coulter), LIVE/DEAD® Fixable Dead Cell Stain Kit (L34957, Invitrogen) and anti-CD277 labelled with ALEXA FLUOR® 647 (Protein labelling Kit ALEXA FLUOR® 647, Molecular Probes, Invitrogen). […] All samples were measured on FACSCANTO® or FACSARIA® flow cytometers (BD Biosciences) using FACSDIVA® software. […]\nPBMC were plated and stimulated as described in the paragraph: cell lines and expansion of γδ T cells, except cells were stimulated with anti-CD277 mAbs (10 μg/ml); or control isotypes (10 μg/ml); and with or without BrHPP at different concentrations. […] Percentages of Vγ9Vδ2 were measured the first day and the last day of culture as described above. […] Activation of degranulation was measured by CD107 labelling assay as described above."}, "monocytes": {"system": "monocytes", "assay": "Apoptosis detection (Annexin V), survival of monocytes", "details": "plastic-coated mAb or 20 ng/ml GM-CSF, 3 days (72 hours), Annexin V; representative value and range of five experiments", "method": "(§1) Blood samples were obtained from 5 healthy volunteers enrolled among the staff members, after informed consent. Monocytes were separated from peripheral blood mononuclear cells, and isolated using the MACS CD14 isolation kit (Miltenyi Biotech, Auburn, Calif. USA). Monocytes were cultured for 5 days with 200 ng/ml of recombinant human GM-CSF and 10 ng/ml recombinant human IL-4 (Schering-Plough Research Institute). These cells were termed immature dendritic cells (iDC). To achieve the stimulation, monocytes and iDC were cultured with 10 ng/ml of LPS, ligand for TLR4, 30 μg/ml of 8848 (Sigma-Aldrich, Milano, Italy), ligand for TLR7/8 and with […] of poly (I:C) (Sigma-Aldrich), ligand for TLR3, and were harvested after 48 h. The cells were cultured in RPMI 1640 supplemented with 10% heat-inactivated FCS, 5 mM L-glutamine and 50 IU/ml penicillin-streptomycin (from here on referred to as complete medium).\n(§2) Monocytes and iDC were cultured on plastic coated with anti-BT3 mAb (clone 20.1) or with isotype-matched irrelevant mAb. As control, the cells were stimulated with 20 ng/ml recombinant human GM-CSF (Schering-Plough Research Institute). After three days, cells were harvested, stained with Annexin V-FITC (Bender MedSystems, Wien, Austria) and analysed by flow cytometry."}, "[1]": {"system": "immature dendritic cells (iDC)", "assay": "Apoptosis detection (Annexin V), survival of iDC", "details": "plastic-coated mAb or GM-CSF, 72-h culture, representative value and range of five experiments", "method": "as §1, §2"}, "primary AML blasts [2]": {"system": "primary AML blasts", "assay": "Chromium release assay, lysis of primary AML blasts by Vγ9Vδ2 T cells", "details": "E:T 30:1; ZOL 45 μM O/N, 20.1 mAb 10 μg/ml, BrHpp 2 μM", "method": "(§3) Effector γδ T cells were established and maintained as previously described^28. PBMC from HV were stimulated with ZOL (1 μm) and rhlL-2 (200 IU/ml) at Day 0. From Day 5, rhIL-2 was renewed every two days and cells were kept at 1.5×10^6/m1 for 15 days. NK cells were isolated using EASYSEP® Human NK cell enrichment kit (StemCell Technologies). The purity of γδ T cells and NK cells was determined by flow cytometry and respectively greater than 80% and 98%. The Burkitt lymphoma cell line, DAUDI, the human AML cell line, U937, and the erythroleukemic cell line, K562, were obtained from the American Type Culture Collection and cultured (0.5×10^6/ml) in RPMI 1640 medium with 10% FCS. BTN3A Knock-down HEK293FT cells (sh #284; clone #30) were provided by E.Scotet (Inserm U892, Nantes), cultured and transfected with BTN3A1, BTN3A2, BTN3A3 mutated cDNA-containing plasmids, as described^23.\n(§4) 0.5×10^6 target cells were incubated with 50 pCi of ^51Cr (Perkin-Elmer) for AML blasts and 10 pCi for DAUDI and K562 cells for 90 minutes and mixed with effector cells in a Effector:Target (E:T) ratio of […]. After 4 hours of incubation at 37° C., 50p1 supernatant of each sample was transferred in LUMA® plates and radioactivity was determined by a gamma counter. The percentage of specific lysis was calculated using the formula [(experimental−spontaneous release/total−spontaneous release)×100] and expressed as the mean of triplicate."}, "primary AML blasts [3]": {"system": "primary AML blasts", "assay": "Chromium release assay, lysis of primary AML blasts by NK cells", "method": "as §3, with “BTN3A Knock-down HEK293FT cells (sh #284; clone #30) were provided by E.Scotet (Inserm U892, Nantes), cultured and transfected with BTN3A1, BTN3A2, BTN3A3 mutated cDNA-containing plasmids, as described^23.” left out\nas §4"}},
  "note": "Several values for one entry are separate records, joined by “and”; a condition that tells them apart may be missing. Equal values may be shown once.",
  "data": [
    {"compound": "CC(O)(CBr)CCOP(=O)(O)OP(=O)(O)O", "note": "(centres unmarked) [BrHPP]", "values": [
      {"measurement": "CD107 expression", "setting": "Vγ9Vδ2 T cells", "value": "up to 40%"}
    ]},
    {"compound": "GM-CSF: recombinant human GM-CSF, survival control [reference compound]", "values": [
      {"measurement": "monocytes survived in the absence of endogenous survival factors", "setting": "monocytes", "value": "81.22% and 60.41-83%"},
      {"measurement": "healthy-vital (surviving) iDC", "setting": "[1]", "value": "85.97% and 71.01-85.97%"}
    ]},
    {"compound": "O=P(O)(O)C(O)(Cn1ccnc1)P(=O)(O)O", "note": "[ZOL, Zoledronate, reference compound]", "values": [
      {"measurement": "enhancement of Vγ9Vδ2 T cells lysis of AML blasts compared with BrHpp", "setting": "primary AML blasts [2]", "value": "significantly more efficient"},
      {"measurement": "NK cells-mediated AML blasts lysis", "setting": "primary AML blasts [3]", "value": "no effect"}
    ]}
  ]
}
